Source: patent US7709458B2, “Method for inhibiting cancer cell proliferation or increasing cancer cell apoptosis” (priority 2004, dated 2010)

Columns and labels:
[1] = patients with Stage II or III disease; adjuvant chemotherapy (Bresalier, 2002); cited from earlier work
[2] = tested on: H508 human colon cancer cells; assay: H508 colon cancer cell proliferation assay (sulforhodamine B colorimetric assay); assay type: cell-based; conditions: for effect on basal H508 cell proliferation / effect on EGF-induced H508 cell proliferation / effect on acetylcholine-induced H508 cell proliferation: 50 μM; for effect on basal H508 cell proliferation / potency in reducing acetylcholine- and EGF-stimulated H508 proliferation compared with c-di-GMP: 5 days incubation; for effect on EGF-induced H508 cell proliferation: EGF 1 ng/ml; for effect on EGF-induced H508 cell proliferation / effect on acetylcholine-induced H508 cell proliferation: 5 days; for effect on acetylcholine-induced H508 cell proliferation: acetylcholine 300 μM
Procedure: H508 colon cancer cell culture. H508 human colon cancer cells were grown in RPMI 1640 (ATCC) supplemented with 10% fetal bovine serum (FBS) (Biowhittaker). Adherent cultures were passaged weekly at subconfluence after trypsinization. Cultures were maintained in incubators at 37° C. in an atmosphere of 5% CO2 and 95% air.
H508 colon cancer cell proliferation assay. Cell proliferation was determined using the sulforhodamine B (SRB) colorimetric assay (Skehan et al., 1990). Cells were seeded in 96-well plates (Corning Glass Works, Corning, N.Y.) at approx. 10% confluence and allowed to attach for 24 h. Growth medium was removed and fresh medium without FBS and containing the indicated concentration of test agent was added. Cells were incubated for the indicated periods of time at 37° C. in an atmosphere of 5% CO2 and 95% air. After incubation, cells were treated for 30 min with 0.4% (w/v) SRB dissolved in 1% acetic acid. Protein-bound dye was extracted with unbuffered 10 mM Tris base. Absorbance was measured at 560 nm using a computer-interfaced, 96-well microtiter plate reader.
c-di-GMP inhibits proliferation of human colon cancer cells. The potential therapeutic actions of c-di-GMP were examined on basal and growth factor-stimulated proliferation of cells derived from a moderately differentiated human cecal adenocarcinoma (H508 cells) that express M3 muscarinic (M3R) and epidermal growth factor (EGF) receptors (EGFR) (Cheng et al., 2003). Cell proliferation was determined using the validated sulforhodamine B (SRB) calorimetric assay (Skehan et al., 1990). H508 cells were incubated in the absence or presence of a growth stimulant, acetylcholine (300 μM) and EGF (1 ng/ml) alone or with increasing concentrations of c-di-GMP (0.5-50 μM). After a 5-day incubation, the highest concentration of c-di-GMP tested, 50 μM, reduced basal H508 cell proliferation by approx. 15% (FIG. 1; p<0.05 compared to control, Student's unpaired t-test).

O=c1[nH]cc(F)c(=O)[nH]1 [5-fluorouracil]
reduction of colon cancer mortality [1]: 33% | reduction of colon cancer recurrence [1]: 42%

Nc1nc2c(ncn2[C@@H]2O[C@H](COP(=O)(O)O)[C@@H](O)[C@H]2O)c(=O)[nH]1 [5′-GMP, guanosine 5′-monophosphate, reference compound]
effect on basal H508 cell proliferation [2]: neither of the guanosine analogs tested, cGMP and 5′-GMP, altered basal proliferation | effect on EGF-induced H508 cell proliferation [2]: reduced | effect on acetylcholine-induced H508 cell proliferation [2]: reduced | potency in reducing acetylcholine- and EGF-stimulated H508 proliferation compared with c-di-GMP [2]: less potent in this action than c-di-GMP

Nc1nc2c(ncn2[C@@H]2O[C@@H]3COP(=O)(O)O[C@H]3[C@H]2O)c(=O)[nH]1 [cGMP, guanosine 3′,5′-cyclic monophosphate, reference compound]
effect on basal H508 cell proliferation [2]: neither of the guanosine analogs tested, cGMP and 5′-GMP, altered basal proliferation | effect on EGF-induced H508 cell proliferation [2]: reduced | effect on acetylcholine-induced H508 cell proliferation [2]: reduced | potency in reducing acetylcholine- and EGF-stimulated H508 proliferation compared with c-di-GMP [2]: less potent in this action than c-di-GMP
